{
  "source": "patent US20200123208A1",
  "about": "“PEPTIDES AND NEMATICIDAL COMPOSITIONS” (priority 2017, published 2020)",
  "key": {"[1]": {"tested_on": "Meloidogyne incognita J2s", "assay": "Serotonin-induced stylet thrusting assay, M. incognita J2s", "format": "in vivo", "settings": "100 μM uNLP, 24 h, 5 mM serotonin", "experimental": "Predicted uNLPs from both M. incognita and G. pallida were synthesised by EZBiolab and dissolved into pH adjusted ddH2O to make a 5 mM stock which was aliquoted and stored at −20° C. J2s of both M. incognita and G. pallida were incubated for 24 hours in 200 μl of each peptide in a 24 well plate (SPL Lifesciences, South Korea) at a defined concentration.\nStylet thrusting assays where performed by incubating 100 M. incognita or G. pallida J2s for 15 minute in 5 mM or 2 mM serotonin (Sigma Aldrich, USA), respectively. J2s were placed on a glass slide and stylet thrusts were counted for randomly selected J2s, for 1 minute each. Counting took place for a maximum of 15 minutes. Longer incubations yielded inconsistent results. At least 30 J2s were counted for each neuropeptide treatment."}, "[2]": {"tested_on": "mixed-stage Caenorhabditis elegans", "assay": "C. elegans chemotaxis assay (non-target nematode)", "format": "in vivo", "settings": "100 μM, 24 h, no statistically significant impact", "experimental": "C. elegans wild-type N2 Bristol strain were obtained from the C. elegans Genomics Center and maintained on a Escherichia coli (strain OP50) lawn on nematode growth medium (NGM) agar plates (3 g/l NaCl, 17 g/l agar, 2.5 g/l peptone, 5 mg/l cholesterol, 25 mM KH2PO4 (pH 6.0), 1 mM CaCl2, 1 mM MgSO4) at 20° C.. Chemotaxis assays were performed in a 9 cm diameter Petri dish on NGM agar which was split into a positive and negative side with a central ‘dead zone’ of 1.5 cm diameter. 100 mixed-staged C. elegans were washed three times in M9 buffer and soaked in 100 μM PPN uNLP, or M9 vehicle control for 24 hours. 2 μl of 50 mM sodium acetate, 0.5% pyrazine, 0.5% benzaldehyde or 0.5% diacetyl was spotted onto the positive side, 2 μl of ddH2O was spotted onto the negative side. Pyrazine, benzaldehyde and diacetyl volatile attractants were assayed immediately whereas the water soluble sodium acetate was assayed 18 hours following addition to the plate. Assays were maintained in the dark at 20° C., and counted after 1 hour."}},
  "data": [
    {"sequence": "SFDSFTGPGFTGLD [Mi-NLP-15b]", "values": [
      {"measurement": "rate of serotonergic-induced stylet thrusting compared with controls", "setting": "[1]", "value": 129.9, "unit": "%+/−10.59"},
      {"measurement": "chemotaxis index (Cl) towards sodium acetate", "setting": "[2]; control 0.4269", "value": "0.3142+/−0.039"},
      {"measurement": "chemotaxis index (Cl) towards pyrazine", "setting": "[2]; control 0.4904", "value": "0.4959+/−0.089"},
      {"measurement": "chemotaxis index (Cl) towards diacetyl", "setting": "[2]; control 0.6638", "value": "0.6640+/−0.126"},
      {"measurement": "chemotaxis index (Cl) towards benzaldehyde", "setting": "[2]; control 0.7026", "value": "0.7032+/−0.075"}
    ]}
  ]
}
